Where two headings read alike, the source gives them in different places.

In general, Ki refers to the equilibrium dissociation constant of an inhibitor or competing ligand from its target.

The target of one test is Mcl-1 (Homo sapiens (Human), UniProt Q07820). Put plainly: Fluorescence polarization anisotropy (FPA) competition assay, FITC-Bak or FITC-Bim BH3 peptide. In kind it is binding. As to conditions: read-out: Ki for Inhibition of Mcl-1 by FPA assay. On the technique in general: Polarisation of emitted light reports the rotation of a fluorescent probe.
The subject of test [1] is H929 human cancer cell lines. The experiment in a line: Cellular viability / proliferation (Cell TiterGlo, 72 h). It counts as cell-based. The essentials: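 Cells were seeded at 1,000 cells/well in medium with 10% FBS and dosed 24 h later with a 2-fold serial dilution of compound (top concentration 50 μM, final DMSO <1%).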
Where [2] appears, read: Homo sapiens, NCI-H929, 72 h, read-out: GI50 on cellular proliferation of H929 human cancer cell lines, H929 cells, 72 h, Cell TiterGlo, 10% FBS.

Mcl-1, sequence (Q07820 172-327): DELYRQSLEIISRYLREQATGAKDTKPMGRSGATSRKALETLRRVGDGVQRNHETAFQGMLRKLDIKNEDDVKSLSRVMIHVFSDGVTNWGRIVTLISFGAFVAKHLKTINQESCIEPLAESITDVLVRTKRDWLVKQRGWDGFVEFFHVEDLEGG

For the molecule `Cc1cc(OCCCc2c3n(c4c(-c5c(C)ncnc5C)c(Cl)ccc24)CCCN(c2cccc4c(C(=O)O)cn(C)c24)C3=O)cc(C)c1Cl` [Example 119, 7-[8-chloro-11-[3-(4-chloro-3,5-dimethyl-phenoxy)propyl]-7-(4,6-dimethylpyrimidin-5-yl)-1-oxo-4,5-dihydro-3H-[1,4]diazepino[1,2-a]indol-2-yl]-1-methyl-indole-3-carboxylic acid], the inhibition constant (Ki) at Mcl-1 was below 1 nM. The GI50 in test [1] (setting [2]) turned out to be 2900 nM.

Take `Cc1cc(OCCCc2c3n(c4c(-c5c(C)ncnc5C)c(Cl)ccc24)CCCNC3=O)cc(C)c1Cl` [Example 120, 8-Chloro-11-(3-(4-chloro-3,5-dimethylphenoxy)propyl)-7-(4,6-dimethylpyrimidin-5-yl)-2,3,4,5-tetrahydro-1H-[1,4]diazepino[1,2-a]indol-1-one]: the Ki at Mcl-1 worked out at 39 nM. Further, in test [1] (setting [2]), the GI50 is 12000 nM.

Turning to `CCn1ncc2cc(C(=O)O)cc(N3CCCn4c(c(CCCOc5cc(C)c(Cl)c(C)c5)c5ccc(Cl)c(-c6c(C)nn(C)c6C)c54)C3=O)c21` [Example 122, 7-(8-Chloro-11-(3-(4-chloro-3,5-dimethylphenoxy)propyl)-1-oxo-7-(1,3,5-trimethyl-1H-pyrazol-4-yl)-4,5-dihydro-1H-[1,4]diazepino[1,2-a]indol-2(3H)-yl)-1-ethyl-1H-indazole-5-carboxylic acid], on Mcl-1, the Ki is 2.2 nM. For the same molecule, the GI50 in test [1] (setting [2]) is 11000 nM.

Take `Cc1cc(OCCCc2c3n(c4c(-c5c(C)nn(C)c5C)c(Cl)ccc24)CCCN(c2cc(C(=O)O)cc4cnn(C)c24)C3=O)cc(C)c1Cl` [Example 123, 7-(8-Chloro-11-(3-(4-chloro-3,5-dimethylphenoxy)propyl)-1-oxo-7-(1,3,5-trimethyl-1H-pyrazol-4-yl)-4,5-dihydro-1H-[1,4]diazepino[1,2-a]indol-2(3H)-yl)-1-methyl-1H-indazole-5-carboxylic acid]: the inhibition constant Ki on Mcl-1 is below 1 nM. In addition, the GI50 in test [1] (setting [2]) was determined as 6900 nM.

As to `CCn1cc2cc(C(=O)O)cc(N3CCCn4c(c(CCCOc5cc(C)c(Cl)c(C)c5)c5ccc(Cl)c(-c6c(C)nn(C)c6C)c54)C3=O)c2n1` [Example 124, 7-(8-chloro-11-(3-(4-chloro-3,5-dimethylphenoxy)propyl)-1-oxo-7-(1,3,5-trimethyl-1H-pyrazol-4-yl)-4,5-dihydro-1H-[1,4]diazepino[1,2-a]indol-2(3H)-yl)-2-ethyl-2H-indazole-5-carboxylic acid], the inhibition constant Ki at Mcl-1 is below 1 nM. The GI50 in test [1] (setting [2]) turned out to be 1900 nM.

Take `Cc1cc(OCCCc2c3n(c4c(-c5c(C)nn(C)c5C)c(Cl)ccc24)[C@H](C)CN(c2cccc4c2c(C(=O)O)nn4C)C3=O)cc(C)c1Cl` [Example 125, 4-[(4R)-7-chloro-10-[3-(4-chloro-3,5-dimethyl-phenoxy)propyl]-4-methyl-1-oxo-6-(1,3,5-trimethylpyrazol-4-yl)-3,4-dihydropyrazino[1,2-a]indol-2-yl]-1-methyl-indazole-3-carboxylic acid]: the Ki at Mcl-1 is below 1 nM. The GI50 in test [1] (setting [2]) was 7600 nM.

In the case of `Cc1cc(OCCCc2c3n(c4c(-c5c(C)nn(C)c5C)c(Cl)ccc24)[C@H](C)CN(c2cccc4c2c(C(=O)O)nn4C)C3=O)cc(C)c1Cl` [Example 126, 4-[(4R)-7-chloro-10-[3-(4-chloro-3,5-dimethyl-phenoxy)propyl]-4-methyl-1-oxo-6-(1,3,5-trimethylpyrazol-4-yl)-3,4-dihydropyrazino[1,2-a]indol-2-yl]-1-methyl-indazole-3-carboxylic acid], the inhibitory constant (Ki) at Mcl-1 was below 1 nM. In addition, the GI50 in test [1] (read-out: GI50 on cellular proliferation of H929 human cancer cell lines, H929 cells, 72 h, Cell TiterGlo, 10% FBS) worked out at 5100 nM.

Take `Cc1cc(OCCCc2c3n(c4c(-c5c(C)nn(CC6CCOCC6)c5C)c(Cl)ccc24)[C@H](C)CN(c2cccc4c(C(=O)O)cn(C)c24)C3=O)cc(C)c1Cl` [Example 128, (R)-7-(7-chloro-10-(3-(4-chloro-3,5-dimethylphenoxy)propyl)-6-(3,5-dimethyl-1-((tetrahydro-2H-pyran-4-yl)methyl)-1H-pyrazol-4-yl)-4-methyl-1-oxo-3,4-dihydropyrazino[1,2-a]indol-2(1H)-yl)-1-methyl-1H-indole-3-carboxylic acid]: the Ki at Mcl-1 is below 1 nM. For the same molecule, in test [1] (setting [2]), the GI50 was found to be 410 nM.
